Read-outs that look alike come from different tables or passages of the source.
Assays:
[1] = tested on: HCT-15 (colon cancer cell line); test: NCI-60 single-dose assay; type: cell-based, human; conditions: Homo sapiens, HCT-15, read-out: growth inhibition (GI%) and cytotoxicity (negative values)
Text: (§1) We first evaluated the cytotoxic activity of tricyclic-pyrrole carboxamides 1–20 using the NCI-60 cell line panel, representing nine different human cancers: leukemia, melanoma, and cancers of the lung, colon, central nervous system (CNS), ovary, kidney, prostate, and breast (the one-dose graph for compounds 1–20 is reported in Supplementary Materials, Figures S43–S62). Compounds 1, 5, 10, 11, 17, and 20 satisfied pre-determined threshold inhibition criteria in a minimum number of cell lines; therefore, they were also tested in the full five-dose assay (Figures S63–S68 in the Supplementary Materials).

[2] = tested on: HCT-116 (colon cancer cell line); test: NCI-60 single-dose assay; type: cell-based, human; conditions: Homo sapiens, HCT-116, read-out: growth inhibition (GI%) and cytotoxicity (negative values)
Text: as §1

[3] = tested on: COLO 205 (colon cancer cell line); test: NCI-60 single-dose assay; type: cell-based, human; conditions: Homo sapiens, COLO 205, read-out: growth inhibition (GI%) and cytotoxicity (negative values)
Text: as §1

[4] = tested on: MDA-MB-435 (melanoma cell line); test: NCI-60 single-dose assay; type: cell-based, human; conditions: Homo sapiens, MDA-MB-435, read-out: growth inhibition (GI%) and cytotoxicity (negative values)
Text: as §1

[5] = tested on: M14 (melanoma cell line); test: NCI-60 single-dose assay; type: cell-based, human; conditions: Homo sapiens, M14, read-out: growth inhibition (GI%) and cytotoxicity (negative values)
Text: as §1

[6] = tested on: SW-620 (colon cancer cell line); test: NCI-60 single-dose assay; type: cell-based, human; conditions: Homo sapiens, SW-620, read-out: growth inhibition (GI%) and cytotoxicity (negative values)
Text: as §1

[7] = tested on: HT29 (colon cancer cell line); test: NCI-60 single-dose assay; type: cell-based, human; conditions: Homo sapiens, HT-29, read-out: growth inhibition (GI%) and cytotoxicity (negative values)
Text: as §1

[8] = tested on: SK-MEL-28 (melanoma cell line); test: NCI-60 single-dose assay; type: cell-based, human; conditions: Homo sapiens, SK-MEL-28, read-out: growth inhibition (GI%) and cytotoxicity (negative values)
Text: as §1

[9] = tested on: MCF-7 (breast cancer cell line); test: NCI-60 single-dose assay; type: cell-based, human; conditions: Homo sapiens, MCF7, read-out: growth inhibition (GI%) and cytotoxicity (negative values), MCF-7, 10^−5 M
Text: as §1

[10] = tested on: SK-MEL-2 (melanoma cell line); test: NCI-60 single-dose assay; type: cell-based, human; conditions: Homo sapiens, SK-MEL-2, read-out: growth inhibition (GI%) and cytotoxicity (negative values)
Text: as §1

[11] = tested on: CCRF-CEM (leukemia cell line); test: NCI-60 single-dose assay; type: cell-based, human; conditions: Homo sapiens, read-out: growth inhibition (GI%) and cytotoxicity (negative values)
Text: as §1

[12] = tested on: HL-60(TB) (leukemia cell line); test: NCI-60 single-dose assay; type: cell-based, human; conditions: Homo sapiens, HL-60, read-out: growth inhibition (GI%) and cytotoxicity (negative values)
Text: as §1

[13] = tested on: LOX IMVI (melanoma cell line); test: NCI-60 single-dose assay; type: cell-based, human; conditions: Homo sapiens, LOX IMVI, read-out: growth inhibition (GI%) and cytotoxicity (negative values)
Text: as §1

[14] = tested on: SK-MEL-5 (melanoma cell line); test: NCI-60 single-dose assay; type: cell-based, human; conditions: human
Text: as §1

[15] = tested on: EKVX (non-small cell lung cancer cell line); test: NCI-60 single-dose assay; type: cell-based, human; conditions: Homo sapiens, read-out: growth inhibition (GI%) and cytotoxicity (negative values)
Text: as §1

[16] = tested on: MALME-3M (melanoma cell line); test: NCI-60 single-dose assay; type: cell-based, human; conditions: Homo sapiens, Malme-3M, read-out: growth inhibition (GI%) and cytotoxicity (negative values)
Text: as §1

[17] = tested on: RPMI-8226 (leukemia cell line); test: NCI-60 single-dose assay; type: cell-based, human; conditions: Homo sapiens, RPMI-8226, read-out: growth inhibition (GI%) and cytotoxicity (negative values)
Text: as §1

[18] = tested on: SARS-CoV-2 VR PV10734 (strain Milano); test: microbe, parasite or virus in culture; type: cell-based; conditions: for selectivity index (SI): CC50/EC50; for EC50: Severe acute respiratory syndrome coronavirus 2
[19] = Cytotoxicity on uninfected Huh-7 cells (WST-8, crystal violet); conditions: human, uninfected Huh-7 cells
Method: The toxicity of the compounds at the same concentration was tested on the same cells in parallel.
Cytotoxic effects were evaluated on uninfected cells using the WST-8 assay (Orangu, Cell Guidance Systems, Cambridge, UK) and the crystal violet assay [23]. […] Huh-7, MDCK, and Vero TMPRSS cells were seeded at 1 × 10^4, 1.5 × 10^4, and 1.2 × 10^4 cells/well, respectively, and incubated for 48 h (Huh-7 and MDCK) or 24 h (VERO TMPRSS), following conditions matching those of the corresponding antiviral assays in terms of timing and culture medium. At the end of incubation, the medium was replaced with a 10% WST-8 solution in DMEM and incubated for 1 h at 37 °C. Optical density (OD) was then measured at 450 nm using a Varioskan LUX plate reader (ThermoFisher Scientific, Milano, Italy). Subsequently, cells were fixed with 4% buffered formalin solution (Merck®, Darmstadt, Germany), stained with 1% crystal violet (Merck®, Darmstadt, Germany), and the dye was solubilized in 30% acetic acid for 30 min under shaking. OD was then measured at 595 nm as an additional readout of cell viability. The percentage of viability at each concentration was calculated using the formula:% viability = 100 × (ODcompound/ODuntreated control) where ODcompound and ODuntreated are the OD of the cells treated with compound or DMSO, respectively.
The CC50 value was determined by nonlinear regression analysis on GraphPad Prism 7 (San Diego, CA, USA).

[20] = tested on: IAV strain A/PR/8/34 (H1N1); conditions: preliminary screening
[21] = in vitro; conditions: dog
[22] = tested on: K-562 (leukemia cell line); test: NCI-60 single-dose assay; type: cell-based; conditions: Homo sapiens, K562, read-out: growth inhibition (GI%) and cytotoxicity (negative values)
Text: as §1

[23] = in vitro; conditions: African green monkey
[24] = tested on: MDA-MB-231/ATCC (breast cancer cell line); test: NCI-60 single-dose assay; type: cell-based, human; conditions: Homo sapiens, MDA-MB-231, read-out: growth inhibition (GI%) and cytotoxicity (negative values)
Text: as §1

[25] = tested on: BT-549 (breast cancer cell line); test: NCI-60 single-dose assay; type: cell-based, human; conditions: Homo sapiens, BT-549, read-out: growth inhibition (GI%) and cytotoxicity (negative values)
Text: as §1

[26] = tested on: MDA-MB-468 (breast cancer cell line); test: NCI-60 single-dose assay; type: cell-based, human; conditions: Homo sapiens, MDA-MB-468, read-out: growth inhibition (GI%) and cytotoxicity (negative values)
Text: as §1

[27] = tested on: UO-31 (renal cancer cell line); test: NCI-60 single-dose assay; type: cell-based, human; conditions: Homo sapiens, UO-31, read-out: growth inhibition (GI%) and cytotoxicity (negative values)
Text: as §1

[28] = tested on: NCI-H23 (non-small cell lung cancer cell line); test: NCI-60 single-dose assay; type: cell-based, human; conditions: Homo sapiens, NCI-H23, read-out: growth inhibition (GI%) and cytotoxicity (negative values)
Text: as §1

[29] = tested on: CAKI-1 (renal cancer cell line); test: NCI-60 single-dose assay; type: cell-based, human; conditions: Homo sapiens, CAKI-1, read-out: growth inhibition (GI%) and cytotoxicity (negative values)
Text: as §1

[30] = tested on: 786-0 (renal cancer cell line); test: NCI-60 single-dose assay; type: cell-based, human; conditions: Homo sapiens, 786-0, read-out: growth inhibition (GI%) and cytotoxicity (negative values)
Text: as §1

[31] = tested on: NCI-H226 (non-small cell lung cancer cell line); test: NCI-60 single-dose assay; type: cell-based, human; conditions: Homo sapiens, NCI-H226, read-out: growth inhibition (GI%) and cytotoxicity (negative values)
Text: as §1

[32] = tested on: SN12C (renal cancer cell line); test: NCI-60 single-dose assay; type: cell-based, human; conditions: Homo sapiens, read-out: growth inhibition (GI%) and cytotoxicity (negative values)
Text: as §1

[33] = tested on: RXF 393 (renal cancer cell line); test: NCI-60 single-dose assay; type: cell-based, human; conditions: Homo sapiens, RXF 393, read-out: growth inhibition (GI%) and cytotoxicity (negative values)
Text: as §1

[34] = tested on: NCI-H460 (non-small cell lung cancer cell line); test: NCI-60 single-dose assay; type: cell-based, human; conditions: Homo sapiens, NCI-H460, read-out: growth inhibition (GI%) and cytotoxicity (negative values)
Text: as §1

[35] = SARS-CoV-2, VERO TMPRSS cells, 24 h, full dose-response, read-out: EC50
[36] = preliminary screening (50, 5, 0.5 μM), Vero TMPRSS, read-out: SARS‐CoV‐2/Vero TMPRSS EC50

SMILES | inhibition at 10 µM [1] | inhibition at 10 µM [2] | inhibition at 10 µM [3] | inhibition at 10 µM [4] | inhibition at 10 µM [5] | inhibition at 10 µM [6] | inhibition at 10 µM [7] | inhibition at 10 µM [8] | inhibition at 10 µM [9] | inhibition at 10 µM [10] | inhibition at 10 µM [11] | inhibition at 10 µM [12] | inhibition at 10 µM [13] | growth inhibition (GI%) and cytotoxicity (negative values) [14] | inhibition at 10 µM [15] | inhibition at 10 µM [16] | inhibition at 10 µM [17] | CC50 at 48 h [19] | inhibition at 10 µM [22] | CC50 at 24 h [23] | further results
O=C(NCCN1CCN(c2ccccc2)CC1)c1c(Cl)[nH]c2c1CCCc1ccccc1-2 [Compound 12, 2-Chloro-N-(2-(4-phenylpiperazin-1-yl)ethyl)-1,4,5,6-tetrahydrobenzo[6,7]cyclohepta[1,2-b]pyrrole-3-carboxamide] | < 60% | 65.8% | < 60% | < 60% | < 60% | < 60% | 65.5% | < 60% | 60.9% | < 60% | < 60% | 67.2% | < 60% | −7.83% | 72.3% | < 60% | < 60% | 34.2 µM | 70.9% | 72.8 µM | selectivity index (SI) ([18]; SARS-CoV-2, VERO TMPRSS cells): 63.63; EC50 [18, 35]: 1.17 µM; EC50 [18, 36]: 2.26 µM; IAV/MDCK SI [20]: 9.18; CC50 [21]: 32.1 µM; CC50 [23]: 74.5 µM
O=C(NCCN1CCN(c2ccc(Cl)cc2)CC1)c1c(Cl)[nH]c2c1CCCc1ccccc1-2 [Compound 13] | < 60% | < 60% | < 60% | < 60% | < 60% | < 60% | 69.2% | < 60% | < 60% | < 60% | < 60% | 69.6% | < 60% | −21.64% | – | < 60% | 67.4% | 57.9 µM | 70.9% | 77.2 µM | inhibition at 10 µM [24]: < 60%; inhibition at 10 µM [25]: < 60%; inhibition at 10 µM [26]: 95.3%; selectivity index (SI) ([18]; SARS-CoV-2, VERO TMPRSS cells): 150.00; EC50 [18, 35]: 0.66 µM; EC50 [18, 36]: > 0.5 µM; IAV/MDCK SI [20]: 5.45; CC50 [23]: 99 µM
O=C(NCCN1CCN(c2ccccc2Cl)CC1)c1c(Cl)[nH]c2c1CCCc1ccccc1-2 [Compound 14] | < 60% | 66.5% | < 60% | < 60% | < 60% | < 60% | < 60% | < 60% | < 60% | < 60% | < 60% | 71.7% | < 60% | −3.84% | 72.7% | < 60% | 60.9% | 30.2 µM | 70.3% | 36.7 µM | inhibition at 10 µM [24]: < 60%; inhibition at 10 µM [25]: < 60%; inhibition at 10 µM [26]: 82.4%; inhibition at 10 µM [27]: 63.6%; CC50 [21]: 15.6 µM
COc1ccccc1N1CCN(CCNC(=O)c2c(Cl)[nH]c3c2CCCc2ccccc2-3)CC1 [Compound 15] | 66.4% | 65.2% | < 60% | < 60% | 84.8% | 60.1% | 79.4% | < 60% | 73% | < 60% | < 60% | 86.6% | 60.6% | −75.22% | 81.7% | 70.1% | 70.1% | 9.43 µM | 92.7% | 38 µM | inhibition at 10 µM [28]: < 60%; inhibition at 10 µM [29]: 61%; inhibition at 10 µM [30]: < 60%; inhibition at 10 µM [31]: < 60%; inhibition at 10 µM [24]: < 60%; inhibition at 10 µM [32]: < 60%; inhibition at 10 µM [25]: 66.5%; inhibition at 10 µM [33]: < 60%; inhibition at 10 µM [26]: 94.8%; inhibition at 10 µM [34]: < 60%; inhibition at 10 µM [27]: 63.6%; EC50 [18, 36]: 40.6 µM; IAV/MDCK SI [20]: 0.47; CC50 [21]: 8.29 µM

From paper PMC12566046, “Arylpiperazinyl-Benzocycloheptapyrrole-Carboxamides Endowed with Dual Anticancer and Antiviral Activities” (Molecules, 2025)
